Measurements reported in PubChem BioAssay AID330 (DTP/NCI, 2004).
Several values for one entry are separate records, joined by “and”; a condition that tells them apart may be missing. Identical values can stand only once. Inconclusive results and toxic doses are left out.

Test system: P388 leukemia ip, CD2F1 mice, survival T/C
Experiment: NCI In Vivo Anticancer Drug Screen. Data for tumor model P388 Leukemia (intraperitoneal) in CD2F1 (CDF1) mice
Conditions: endpoint: median survival time, higher = longer survival
How it was run: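 Mice carrying the transplanted tumor received test compound or vehicle. Survival was recorded in each group, and the value is the treated-group measurement divided by that of the vehicle-treated control group.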

[1] = dose: 60.0 mg/kg/injection, schedule: Q01DX005 (ip), vehicle: saline with Tween-80
[2] = dose: 120.0 mg/kg/injection, schedule: Q01DX005 (ip), vehicle: saline with Tween-80
[3] = dose: 240.0 mg/kg/injection, schedule: Q01DX005 (ip), vehicle: saline with Tween-80
[4] = dose: 25.0 mg/kg/injection, schedule: Q01DX005 (ip), vehicle: Klucel (hydroxypropylcellulose) (HPC)
[5] = dose: 50.0 mg/kg/injection, schedule: Q01DX005 (ip), vehicle: Klucel (hydroxypropylcellulose) (HPC)
[6] = dose: 100.0 mg/kg/injection, schedule: Q01DX005 (ip), vehicle: Klucel (hydroxypropylcellulose) (HPC)
[7] = dose: 200.0 mg/kg/injection, schedule: Q01DX005 (ip), vehicle: Klucel (hydroxypropylcellulose) (HPC)
[8] = dose: 60.0 mg/kg/injection, schedule: Q01DX005 (ip), vehicle: Klucel (hydroxypropylcellulose) (HPC)
[9] = dose: 120.0 mg/kg/injection, schedule: Q01DX005 (ip), vehicle: Klucel (hydroxypropylcellulose) (HPC)
[10] = dose: 240.0 mg/kg/injection, schedule: Q01DX005 (ip), vehicle: Klucel (hydroxypropylcellulose) (HPC)
[11] = dose: 100.0 mg/kg/injection, schedule: Q04DX003 (ip), vehicle: saline
[12] = dose: 200.0 mg/kg/injection, schedule: Q04DX003 (ip), vehicle: saline
[13] = dose: 50.0 mg/kg/injection, schedule: Q01DX009 (ip), vehicle: Klucel (hydroxypropylcellulose) (HPC)
[14] = dose: 100.0 mg/kg/injection, schedule: Q01DX009 (ip), vehicle: Klucel (hydroxypropylcellulose) (HPC)
[15] = dose: 200.0 mg/kg/injection, schedule: Q01DX009 (ip), vehicle: Klucel (hydroxypropylcellulose) (HPC)
[16] = dose: 12.5 mg/kg/injection, schedule: Q01DX009 (ip), vehicle: saline with Tween-80
[17] = dose: 25.0 mg/kg/injection, schedule: Q01DX009 (ip), vehicle: saline with Tween-80
[18] = dose: 50.0 mg/kg/injection, schedule: Q01DX009 (ip), vehicle: saline with Tween-80
[19] = dose: 100.0 mg/kg/injection, schedule: Q01DX009 (ip), vehicle: saline with Tween-80
[20] = dose: 200.0 mg/kg/injection, schedule: Q01DX009 (ip), vehicle: saline with Tween-80
[21] = dose: 12.5 mg/kg/injection, schedule: Q01DX009 (ip), vehicle: saline
[22] = dose: 50.0 mg/kg/injection, schedule: Q01DX009 (ip), vehicle: saline

For `ClC1=NOC(c2ccccc2)C1` (centres undefined), the T/C (dose: 6.25 mg/kg/injection, schedule: Q01DX005 (ip), vehicle: distilled water + Tween-80) was 110 % of control, the T/C (dose: 12.5 mg/kg/injection, schedule: Q01DX005 (ip), vehicle: distilled water + Tween-80) was 97 % of control and the T/C (dose: 25.0 mg/kg/injection, schedule: Q01DX005 (ip), vehicle: distilled water + Tween-80) was 100 % of control. For the same molecule, the T/C (dose: 50.0 mg/kg/injection, schedule: Q01DX005 (ip), vehicle: distilled water + Tween-80) was 105 % of control and 107 % of control, the T/C (dose: 100.0 mg/kg/injection, schedule: Q01DX005 (ip), vehicle: distilled water + Tween-80) was 99 % of control and the T/C (dose: 200.0 mg/kg/injection, schedule: Q01DX005 (ip), vehicle: distilled water + Tween-80) was 108 % of control.
`O=[N+]([O-])c1ccc(F)c(Cl)c1` was tested, and the T/C (dose: 100.0 mg/kg/injection, schedule: Q04DX003 (ip), vehicle: other) was 100 % of control and the T/C (dose: 200.0 mg/kg/injection, schedule: Q04DX003 (ip), vehicle: other) was 100 % of control.
In the case of `CC(C)(OCc1ccccc1)c1ccccc1[P+](C)(c1ccccc1)c1ccccc1`, the T/C (dose: 100.0 mg/kg/injection, schedule: Q01DX001 (ip), vehicle: Klucel (hydroxypropylcellulose) (HPC)) is reported as 109 % of control and the T/C (dose: 200.0 mg/kg/injection, schedule: Q01DX001 (ip), vehicle: Klucel (hydroxypropylcellulose) (HPC)) is reported as 113 % of control.
In the case of `O=C(Nc1cc(Cl)c(Cl)cc1Cl)N1CCOCC1`, the T/C [1] is reported as 104 % of control, the T/C [2] is reported as 105 % of control and the T/C [3] is reported as 102 % of control.
With `NC(C(=O)O)C1=CCCCCC1` (centres undefined) the T/C [4] was 100 % of control, the T/C [5] was 101 % of control and the T/C [6] was 106 % of control. For the same molecule, the T/C [7] was 101 % of control.
In the case of `O=c1c2ccccc2c2sc3c4ccccc4c(=O)c3c12`, the T/C [8] is reported as 104 % of control, the T/C [9] is reported as 99 % of control and the T/C [10] is reported as 97 % of control.
`CN1C(=C2C=CC(=NS(=O)(=O)c3ccc(Cl)cc3)C=C2)Sc2ccccc21` was tested, and the T/C [11] was 105 % of control, the T/C [12] was 106 % of control and the T/C (dose: 400.0 mg/kg/injection, schedule: Q04DX003 (ip), vehicle: saline) was 100 % of control.
`CCCCN1COCO[C@H]2CCC[C@@H]21` was tested, and the T/C (dose: 100.0 mg/kg/injection, schedule: Q04DX002 (ip), vehicle: Klucel (hydroxypropylcellulose) (HPC)) was 118 % of control and the T/C (dose: 200.0 mg/kg/injection, schedule: Q04DX002 (ip), vehicle: Klucel (hydroxypropylcellulose) (HPC)) was 122 % of control.
In the case of `CCN(CC)Cc1c(C)[nH]c2c(ccc3c2ccc2c(=O)c(CN(CC)CC)c(C)[nH]c23)c1=O`, the T/C [13] is reported as 93 % of control, the T/C [14] is reported as 91 % of control and the T/C [15] is reported as 96 % of control.
For `OCC(O)CCBr` (centres undefined), the T/C [16] was 107 % of control, the T/C [17] was 107 % of control and the T/C [18] was 114 % of control and 96 % of control. For the same molecule, the T/C [19] was 89 % of control, the T/C [11] was 118 % of control and the T/C [20] was 95 % of control. For the same molecule, the T/C [12] was 122 % of control, the T/C (dose: 264.0 mg/kg/injection, schedule: Q01DX009 (ip), vehicle: saline sonified) was 159 % of control and the T/C (dose: 264.0 mg/kg/injection, schedule: Q04DX003 (ip), vehicle: saline) was 110 % of control. For the same molecule, the T/C (dose: 400.0 mg/kg/injection, schedule: Q01DX009 (ip), vehicle: saline sonified) was 181 % of control, the T/C (dose: 600.0 mg/kg/injection, schedule: Q01DX009 (ip), vehicle: saline sonified) was 186 % of control and the T/C (dose: 600.0 mg/kg/injection, schedule: Q04DX003 (ip), vehicle: saline) was 115 % of control.
For `COC(=O)c1ccccc1S(=O)(=O)NC(C)C`, the T/C [5] was 99 % of control, the T/C [6] was 96 % of control and the T/C [7] was 105 % of control.
In the case of `CC(=O)OC1C=CC2Oc3ccc(C)cc3C1(C)O2` (centres undefined), the T/C [1] is reported as 93 % of control, the T/C [2] is reported as 106 % of control and the T/C [3] is reported as 101 % of control.
For `CC1=NCCc2cc3c(cc21)OCO3`, the T/C (dose: 25.0 mg/kg/injection, schedule: Q01DX001 (ip), vehicle: saline + alcohol) was 99 % of control and the T/C (dose: 50.0 mg/kg/injection, schedule: Q01DX001 (ip), vehicle: saline + alcohol) was 97 % of control.
With `O=c1c2oc3ccccc3c2cnn1CO` the T/C [16] was 103 % of control and 97 % of control, the T/C [17] was 100 % of control and 105 % of control and the T/C [18] was 102 % of control and 108 % of control. The T/C [19] was 105 % of control and 117 % of control.
With `O=S(=O)(O)c1ccc2cccc(N=Nc3c(O)ccc4ccccc34)c2c1` the T/C [21] was 104 % of control, the T/C (dose: 25.0 mg/kg/injection, schedule: Q01DX009 (ip), vehicle: saline) was 101 % of control and the T/C [22] was 93 % of control.
For `CN1CN(C)CN(Cc2ccc([N+](=O)[O-])cc2)C1`, the T/C [4] was 93 % of control, the T/C [5] was 97 % of control and the T/C [6] was 94 % of control. The T/C [7] was 91 % of control.
For `Cc1n[nH]c(=O)c2[nH]c3ccccc3c12`, the T/C [1] was 104 % of control, the T/C [2] was 97 % of control and the T/C [3] was 96 % of control.
In the case of `O=C1OC(c2ccccc2)N/C1=C\c1ccc(OCc2ccccc2)c(OCc2ccccc2)c1` (centres undefined), the T/C (dose: 100.0 mg/kg/injection, schedule: Q04DX003 (ip), vehicle: Klucel (hydroxypropylcellulose) (HPC)) is reported as 94 % of control, the T/C (dose: 200.0 mg/kg/injection, schedule: Q04DX003 (ip), vehicle: Klucel (hydroxypropylcellulose) (HPC)) is reported as 87 % of control and the T/C (dose: 400.0 mg/kg/injection, schedule: Q04DX003 (ip), vehicle: Klucel (hydroxypropylcellulose) (HPC)) is reported as 90 % of control.
For `O=c1cccc[nH]1`, the T/C [22] was 104 % of control and 112 % of control and 121 % of control, the T/C (dose: 100.0 mg/kg/injection, schedule: Q01DX009 (ip), vehicle: saline) was 107 % of control and 109 % of control and 110 % of control and the T/C (dose: 200.0 mg/kg/injection, schedule: Q01DX009 (ip), vehicle: saline) was 104 % of control and 105 % of control and 118 % of control. The T/C (dose: 400.0 mg/kg/injection, schedule: Q01DX009 (ip), vehicle: saline) was 108 % of control and 96 % of control and the T/C (dose: 600.0 mg/kg/injection, schedule: Q01DX009 (ip), vehicle: saline) was 121 % of control.
`O=P(N1CCCC1)(N1CC1)N1CC1` was tested, and the T/C (dose: 6.25 mg/kg/injection, schedule: Q01DX009 (ip), vehicle: saline) was 109 % of control, the T/C (dose: 8.3 mg/kg/injection, schedule: Q04DX003 (ip), vehicle: saline) was 172 % of control and the T/C [21] was 90 % of control. The T/C (dose: 12.5 mg/kg/injection, schedule: Q04DX003 (ip), vehicle: saline) was 209 % of control and the T/C (dose: 18.7 mg/kg/injection, schedule: Q04DX003 (ip), vehicle: saline) was 236 % of control.
With `O=C1NC(O)c2cc(Cl)cc(Cl)c2O1` (centres undefined) the T/C [5] was 102 % of control, the T/C [6] was 102 % of control and the T/C [7] was 115 % of control.
`CC1(C(=O)O)CCCC2(C)C(CC(=O)O)C(=O)CCC12` (centres undefined) was tested, and the T/C (dose: 5.0 mg/kg/injection, schedule: Q01DX009 (ip), vehicle: saline with Tween-80) was 101 % of control, the T/C (dose: 10.0 mg/kg/injection, schedule: Q01DX009 (ip), vehicle: saline with Tween-80) was 108 % of control and the T/C (dose: 20.0 mg/kg/injection, schedule: Q01DX009 (ip), vehicle: saline with Tween-80) was 99 % of control.
With `O=[Se](=O)(O)O` the T/C (dose: 1.88 mg/kg/injection, schedule: Q01DX005 (ip), vehicle: saline) was 103 % of control, the T/C (dose: 3.75 mg/kg/injection, schedule: Q01DX005 (ip), vehicle: saline) was 109 % of control and 99 % of control and the T/C (dose: 7.5 mg/kg/injection, schedule: Q01DX005 (ip), vehicle: saline) was 113 % of control and 101 % of control. The T/C (dose: 15.0 mg/kg/injection, schedule: Q01DX005 (ip), vehicle: saline) was 86 % of control and 98 % of control.
`CCOc1cccc(/C=N/n2c(C)nc3ccccc3c2=O)c1O` was tested, and the T/C [18] was 101 % of control, the T/C [19] was 102 % of control and the T/C [20] was 96 % of control.
For `CSC1=NN(C)C2(CCCCC2)C(=O)N1`, the T/C [13] was 115 % of control, the T/C [14] was 96 % of control and the T/C [15] was 118 % of control.
`CCOC1[N-]CC(C)C(OCC)N1.CCOC1[N-]CC(C)C(OCC)N1.[Cl][Pd][Cl]` (centres undefined) was tested, and the T/C [8] was 102 % of control, the T/C [9] was 106 % of control and the T/C [10] was 107 % of control.
